“And” between values parts separate entries of the source, which are not always exact repeats. Equal entries are not always repeated.
Key:
rat ER-β = target: T1, rat ER-β (Rattus norvegicus, UniProt Q62986); test: Transactivation assay (agonist and antagonist modes), HEK-293 cells, ERE-LUC; type: cell-based
T1 construct: expressed in transfected cells; host or cells: HEK-293

liver X receptor (LXR) = test: Nuclear receptor cross-reactivity transcriptional activation assay; type: cell-based, human; conditions: agonist and antagonist modes
Description: Compound IV was screened for cross-reactivity against rat isoforms of glucocorticoid receptor (GR), mineralocorticoids receptor (MR), progesterone receptor (PR), androgen receptor (AR) and human isoforms of farnesoid X receptor (FXR), liver X receptor (LXR), peroxisome proliferator-activated receptors (PPAR-α and PPAR-γ), and retinoid X receptor (RXR-α) in both agonist and antagonist modes in transcriptional activation assays.

[1] = tested on: men with metastatic castration resistant prostate cancer (mCRPC); test: Study 6: secondary hormone therapy with Compound IV 125 mg, 250 mg or 500 mg in mCRPC/nmCRPC maintained on ADT; type: in vivo, human
Description: Compound IV, is studied (Study 6) for the proposed indication secondary hormone therapy for metastatic castration resistant prostate cancer (mCRPC), for high risk non-metastatic castration resistant prostate cancer (nmCRPC) or advanced prostate cancer at high risk of progressing to CRPC, or any combination thereof.
The effect of Compound IV as secondary hormonal therapy that reduces serum PSA and serum free testosterone levels in men with metastatic castration resistant prostate cancer maintained on androgen deprivation therapy is studied. The study assesses the effects of Compound IV on serum PSA response and serum PSA progression in men with mCRPC on ADT with LHRH agonists, LHRH antagonists, or orchidectomy. This study also assesses the VTE risk of lower doses of Compound IV. Secondary endpoints include serum free testosterone levels, adrenal gland androgen precursor production (DHEA and DHEAS levels), progression free survival, and skeletal related events (SRE).
75 subjects with castration resistant prostate cancer patients with radiographic evidence of metastatic disease (T any-N any-M1) are enrolled in the study. These subjects have a median life expectancy of less than 20 months, i.e. more serious disease than the other subjects with advanced prostate cancer enrolled in the previous studies. All subjects have been previously treated with androgen deprivation therapy (ADT), have responded to the ADT and currently have a serum PSA >2 ng/mL or >2 ng/mL and representing a 25% increase above the nadir achieved on the ADT. Subjects are maintained on ADT throughout the study.
Each subject receives daily doses of 125 mg Compound IV, 250 mg Compound IV, or 500 mg Compound IV administered orally, until their serum PSA increases at least 25% and 2 ng/mL from the nadir at two successive serum PSA assessments after initiation of treatment with Compound IV.
Enrollment into this study is staggered by 1 cycle (30 days) such that the first 25 subjects are enrolled into the 125 mg Compound IV dose arm. These subjects are evaluated for incidence of venous thromboembolic events (VTE). When the last subject in the 125 mg Compound IV dose arm has completed 1 cycle of therapy (30 days) in this dose arm and there is an acceptable incidence rate of VTE in this dose arm at that time (less than 3), enrollment is commenced in the 250 mg Compound IV dose arm. These subjects are evaluated for the incidence of VTE. When all 25 subjects in the 250 mg Compound IV dose arm have completed 1 cycle of therapy (30 days) in this dose arm and there is an acceptable incidence rate of VTE in this dose arm at that time (less than 3), enrollment into the 500 mg Compound IV dose arm (25 subjects) is commenced.
125 mg Compound IV, 250 mg Compound IV, or 500 mg Compound IV will be administered daily to all subjects in the study until they have developed serum PSA progression (serum PSA has increased at least 25% and 2 ng/mL above the nadir at two successive sample times after initiation of treatment with Compound IV).
Assessments of serum total testosterone, serum free testosterone, serum SHGB and serum PSA concentrations are made on Days 15, 30, and every 30 days until their serum PSA has increased at least 25% and 2 ng/mL from the nadir at two successive sample times after initiation of treatment with Compound IV. Bone turnover markers are assessed at baseline (Day 1), Day 90, and End of Study.
The incidence and frequency of hot flashes is assessed at baseline (Day 1), Day 30, Day 60, Day 90 and End of Study.
The proportion of subjects with a 50% decline from baseline in serum PSA (confirmed by a second serum PSA assessment 30 days later) by Day 90 (with follow up confirmation by Day 120) […]

human platelets = test: In vitro human platelet aggregation assay (thrombin-induced)
[2] = 250 mg, 11 evaluable patients (FIG. 61)
[3] = Study 6, 125 mg, 20 evaluable patients
[4] = Study 6, 125 mg, 21 evaluable patients
[5] = Study 6, 125 mg, mCRPC on ADT, Day 90, N 20
[6] = Study 6, 125 mg, mCRPC on ADT, N 20
[7] = Study 6, 125 mg, patients with hot flashes at baseline
[8] = Study 6, 125 mg, patients with no hot flashes at baseline

T1 sequence (Q62986 whole entry): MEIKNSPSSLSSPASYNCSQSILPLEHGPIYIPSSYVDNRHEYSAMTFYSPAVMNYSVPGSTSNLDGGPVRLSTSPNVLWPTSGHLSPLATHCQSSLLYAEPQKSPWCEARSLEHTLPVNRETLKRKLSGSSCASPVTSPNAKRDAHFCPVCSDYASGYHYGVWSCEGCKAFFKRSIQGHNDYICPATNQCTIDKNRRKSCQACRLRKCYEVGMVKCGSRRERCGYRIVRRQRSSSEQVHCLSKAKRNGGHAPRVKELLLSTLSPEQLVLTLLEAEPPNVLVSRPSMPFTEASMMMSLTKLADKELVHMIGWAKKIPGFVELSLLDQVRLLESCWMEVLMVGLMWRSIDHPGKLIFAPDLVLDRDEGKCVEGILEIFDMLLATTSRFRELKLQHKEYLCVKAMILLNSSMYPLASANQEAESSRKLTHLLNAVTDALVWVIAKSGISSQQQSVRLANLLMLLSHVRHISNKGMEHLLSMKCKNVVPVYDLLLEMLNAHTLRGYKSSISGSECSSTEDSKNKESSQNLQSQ

SMILES: O=C(c1ccc(O)c(F)c1)N(c1ccc(O)cc1)c1ccc(F)cc1 [Compound IV, 3-fluoro-N-(4-fluorophenyl)-4-hydroxy-N-(4-hydroxyphenyl)benzamide]
- Fold less potency to stimulate ERβ-mediated transcription compared to estradiol (rat ER-β): ~1400 fold
- Agonist or antagonist activity at LXR (liver X receptor (LXR)): did not display any agonist or antagonist activity
- Deep vein thrombosis events (DVTs) ([1]; 125 mg): No deep vein thrombosis events (DVTs) have been reported
- Evaluable patients with improvements in hot flash frequency or severity ([1]; 125 mg): 33%
- Evaluable patients with reductions in CTX ([1]; 125 mg): 60%
- Evaluable patients with reductions in bone specific alkaline phosphatase ([1]; 125 mg): 52%
- Men that do not respond and have continually increasing PSA levels ([1]; 125 mg): 6
- Patients reporting a PSA decrease in response to therapy ([1]; 125 mg): 24 patients
- Patients with maximum free T reductions greater than 50% from baseline ([1]; 125 mg): 24 of 30
- Patients with reductions in free T ([1]; 125 mg): 27 of 30
- SAEs or VTEs ([1]; 125 mg): no SAEs or VTEs
- Subjects with decreased collagen C-telopeptide (CTX) ([1]; 125 mg): 69%
- Subjects with ≧50% decrease in PSA level ([1]; 125 mg): 11%
- Patients with free T >0.7 pg/ml (Day 1) that go to <0.7 pg/mL ([1]; 125 mg cohort): 22/25
- Patients with total T >20 ng/dL (Day 1) that do NOT go to <20 ng/dL ([1]; 125 mg cohort): 0/3
- Patients with total T >20 ng/dL (Day 1) that go to <20 ng/dL ([1]; 125 mg cohort): 3/3
- Patients with improvement in both frequency and severity of hot flashes ([1]; 125 mg, 18 evaluable patients): 22%
- Patients with improvement of frequency or severity and stability of the other measurement ([1]; 125 mg, 18 evaluable patients): 11%
- Patients with stability in frequency and severity of hot flashes ([1]; 125 mg, 18 evaluable patients): 50%
- Patients with worsening of either frequency or severity of hot flashes ([1]; 125 mg, 18 evaluable patients): 17%
- SHBG level relative to Day 0 in all treated men ([1]; 125 mg, at least 90 days, initial 15 patients): ≥ 150 % of Day 0
- Men with suboptimal castration (free T>0.7 pg/ml) that became optimally castrated ([1]; 125 mg, by day 90, initial 15 patients): 91%
- Treated men with improvement and stability of bone turnover markers ([1]; 125 mg, initial group, 11 evaluable subjects): at least 73%
- Patients with >45% decrease in PSA ([1]; 125 mg, prior to day 90, initial 15 patients): 4/15 and 4
- Subjects with any level of PSA decline ([1]; 250 mg): 85%
- Subjects with decreased collagen C-telopeptide (CTX) ([1]; 250 mg): 81%
- Subjects with ≧50% decrease in PSA level ([1]; 250 mg): 30%
- Patients with free T >0.7 pg/ml (Day 1) that go to <0.7 pg/mL ([1]; 250 mg cohort): 9/10
- Patients with total T >20 ng/dL (Day 1) that do NOT go to <20 ng/dL ([1]; 250 mg cohort): 0/4
- Patients with total T >20 ng/dL (Day 1) that go to <20 ng/dL ([1]; 250 mg cohort): 4/4
- Reported drug related serious adverse events (SAE) ([1]; 250 mg daily): one
- Subjects that reported adverse events (AE's) ([1]; 250 mg daily): seven
- Median SHBG level ([1]; 250 mg daily, initial 20 patients, 90 days): 297 % of baseline
- SAE possibly drug related ([1]; 250 mg daily, patient required hospitalization): Phlebothrombosis-Grade 3
- Patients stable in both hot flash measurements [1, 2]: 45%
- Patients with improvement in both/either frequency and severity of hot flashes [1, 2]: 36%
- Bone turnover (CTX) decreased (improved), share of subjects ([1]; Study 6, 125 mg cohort): 69% are decreased
- SHBG, median (of baseline) ([1]; Study 6, 125 mg cohort): Median - 158%
- PSA response: subjects with ≧50% decrease in PSA ([1]; Study 6, 125 mg cohort, 4/38): 4/38 ≧ 50% (11%)
- Hot flashes improved, in men experiencing them on Day 1 ([1]; Study 6, 125 mg cohort, 7/24): 7/24 improved (29%)
- Hot flashes stable, in men experiencing them on Day 1 ([1]; Study 6, 125 mg cohort, 12/24): 12/24 stable (50%)
- CTx decreased, # of patients (%) [1, 3]: 12/20 (60%)
- CTx increased, # of patients (%) [1, 3]: 5/20 (25%)
- CTx unchanged, # of patients (%) [1, 3]: 3/20 (15%)
- BSAP decreased, # of patients (%) [1, 4]: 11/21 (52%)
- BSAP increased, # of patients (%) [1, 4]: 8/21 (38%)
- BSAP unchanged, # of patients (%) [1, 4]: 2/21 (10%)
- Adverse event frequency (%): Bone pain ([1]; Study 6, 125 mg, 34 subjects): 3 (9%)
- Adverse event frequency (%): Gynecomastia (grade 2) ([1]; Study 6, 125 mg, 34 subjects): 4 (12%)
- Adverse event frequency (%): Gynecomastia/breast tenderness (grade 1) ([1]; Study 6, 125 mg, 34 subjects): 4 (12%)
- Adverse event frequency (%): Loss of appetite ([1]; Study 6, 125 mg, 34 subjects): 3 (9%)
- Adverse event frequency (%): Nausea ([1]; Study 6, 125 mg, 34 subjects): 2 (6%)
- Adverse event frequency: VTE ([1]; Study 6, 125 mg, 34 subjects): 0
- Free testosterone level, mean [1, 5]: 0.57 pg/mL
- Free testosterone level, median [1, 5]: 0.45 pg/mL
- Free testosterone, % change from baseline to Day 90, median [1, 6]: −57.14%
- Free testosterone, change from baseline to Day 90, median [1, 6]: -0.50 pg/mL
- Free testosterone, change from baseline to Day 90, mean ([1]; Study 6, 125 mg, mCRPC on ADT, N 20, P 0.0002): -0.74 pg/mL
- Free testosterone, % change from baseline to Day 90, mean ([1]; Study 6, 125 mg, mCRPC on ADT, N 20, P 0.0035): −34.59%
- Change in hot flashes (frequency, severity): (Better, Better), % of patients [1, 7]: 18.75%
- Change in hot flashes (frequency, severity): (Better, Stable), % of patients [1, 7]: 18.75%
- Change in hot flashes (frequency, severity): (Better, Worse), % of patients [1, 7]: 6.25%
- Change in hot flashes (frequency, severity): (Stable, Stable), % of patients [1, 7]: 37.50%
- Change in hot flashes (frequency, severity): (Stable, Worse), % of patients [1, 7]: 6.25%
- Change in hot flashes (frequency, severity): (Worse, Worse), % of patients [1, 7]: 12.50%
- Change in hot flashes (frequency, severity): (Stable, Stable), % of patients [1, 8]: 77.78%
- Change in hot flashes (frequency, severity): (Worse, Worse), % of patients [1, 8]: 22.22%
- SHBG, mean (of baseline) ([1]; Study 6, 250 mg cohort): Mean - 294%
- SHBG, median (of baseline) ([1]; Study 6, 250 mg cohort): Median - 297%
- Hot flashes improved, in men experiencing them on Day 1 ([1]; Study 6, 250 mg cohort, 4/11): 4/11 improved (36%)
- Hot flashes stable, in men experiencing them on Day 1 ([1]; Study 6, 250 mg cohort, 5/11): 5/11 stable (45%)
- PSA response: subjects with ≧50% decrease in PSA ([1]; Study 6, 250 mg cohort, 6/20, Day 90): 6/20 ≧ 50% (30%)
- Bone turnover (CTX) decreased (improved), share of subjects ([1]; Study 6, 250 mg cohort, 13/16): 13/16 (81%) are
- Reported adverse event: Bilateral Breast Tenderness, grade ([1]; Study 6, 250 mg daily): Grade 1
- Reported adverse event: Diarrhea, grade ([1]; Study 6, 250 mg daily): Grade 1
- Reported adverse event: Gynecomastia, grade ([1]; Study 6, 250 mg daily): Grade 2
- Reported adverse event: Nipple Pain, grade ([1]; Study 6, 250 mg daily): Grade 1
- Reported adverse event: Nipple Tenderness, grade ([1]; Study 6, 250 mg daily): Grade 1
- Reported adverse event: Sensitivity of Mammila, grade ([1]; Study 6, 250 mg daily): Grade 1
- Procoagulatory activity compared with DES (human platelets): much lower procoagulatory activity than DES

— patent US9624161B2 (priority 2009, dated 2017)
